This note sets out measurements from PMC7287735 (Molecules, 2020).

One data set deals with MRC-5 cells. The experiment in a line: Cellular toxicity to MRC-5 cells (XTT). The settings on record: 6 days, duplicate data points. On the technique in general: Formazan colour is commonly taken as a measure of viable cells.
A further data set deals with HCoV-229E. The experiment in a line: Anti-coronavirus cytoprotection assay (XTT, reduction of viral cytopathic effect) in MRC-5 cells. The settings on record: for activity against HCoV-229E at the tested concentrations: MRC-5 cells, high test concentration 100 µM; for Therapeutic Index (TC50/EC50): MRC-5/HCoV-229E.
The mark [1] stands for this setting: Human coronavirus 229E, MRC5, 144 h, read-out: EC50 (effective concentration that reduced 50% of viral cytopathic effect), HCoV-229E in MRC-5 cells, 6 days, triplicate data points.
Where [2] appears, read: listed as 5′-O-tetradecanoyl ester conjugate of FTC (9).

Read-outs that look alike come from different tables or passages of the source.

Take `Nc1ccn([C@H]2CS[C@@H](CO)O2)c(=O)n1` [3TC (6), 2′,3′-Dideoxy-3′-thiacytidine]: in the data set with MRC-5 cells, the “TC50 (toxic concentration that killed 50% of MRC-5 cells)” value was over 100 µM. In the data set on HCoV-229E (setting [1]), the EC50 was over 100 µM. In addition, in the data set on HCoV-229E, the “activity against HCoV-229E at the tested concentrations” value (shortened to “activity against HCoV-229E”) is “not active”.
On to `CCSCCCCCCCCCCCC(=O)OC[C@H]1O[C@@H](n2cc(C)c(=O)[nH]c2=O)C[C@@H]1F` [5′-O-(12-thioethydodecanoyl)FLT (5), 5′-O-(12-thioethydodecanoyl)FLT], for which the “TC50 (toxic concentration that killed 50% of MRC-5 cells)” value was 45.4 µM in the data set on MRC-5 cells and 45.4 to 55.3 µM in the data set on MRC-5 cells (listed as 5). For the same compound, the EC50 with HCoV-229E (setting [1]) was over 45.4 µM.
Regarding `CCCCCCCCCCCCCC(=O)OC[C@@H]1O[C@H](n2ccc(N)nc2=O)CS1` [5′-O-(tetradecanoyl)3TC (7), 5′-O-(tetradecanoyl)3TC], the “TC50 (toxic concentration that killed 50% of MRC-5 cells)” value in the data set with MRC-5 cells is 47.5 µM; in the data set with MRC-5 cells (listed as 7) it was 45.4 to 55.3 µM. In addition, in the data set on HCoV-229E (setting [1]), the EC50 was over 47.5 µM.
`CCCCCCCCCCCCCC(=O)OC[C@@H]1O[C@H](n2cc(F)c(N)nc2=O)CS1` [5′-O-(tetradecanoyl)FTC (9), 5′-O-(tetradecanoyl)FTC]: the figures for the “TC50 (toxic concentration that killed 50% of MRC-5 cells)” value with MRC-5 cells and with MRC-5 cells (setting [2]) were 87.5 µM and 87.5 ± 1.34 µM, respectively. The EC50 with HCoV-229E (setting [1]) is 72.8 µM. Also, the entries for the “Therapeutic Index (TC50/EC50)” value with HCoV-229E and with HCoV-229E (setting [2]) were 1.20 and 1.2, respectively.
With `C#C[C@]1(CO)O[C@@H](n2cnc3c(N)nc(F)nc32)C[C@@H]1O` [EFdA (3), 4′-ethynyl-2-fluoro-2′-deoxyadenosine], the results for the “TC50 (toxic concentration that killed 50% of MRC-5 cells)” value in the data set on MRC-5 cells and in the data set with MRC-5 cells (listed as 3) were 55.3 µM and 45.4 to 55.3 µM, respectively. Also, the EC50 in the data set with HCoV-229E (setting [1]) is over 55.3 µM.
Regarding `Cc1cn([C@H]2C[C@H](F)[C@@H](CO)O2)c(=O)[nH]c1=O` [FLT (4), 3′-Fluoro-3′-deoxythymidine], the “TC50 (toxic concentration that killed 50% of MRC-5 cells)” value with MRC-5 cells is over 100 µM. Besides, the EC50 in the data set on HCoV-229E (setting [1]) was over 100 µM. Besides, in the data set on HCoV-229E, the “activity against HCoV-229E” value was “not active”.
Regarding `Nc1nc(=O)n([C@H]2CS[C@@H](CO)O2)cc1F` [FTC (8), 2′,3′-dideoxy-5-fluoro-3′-thiacytidine], the “TC50 (toxic concentration that killed 50% of MRC-5 cells)” value in the data set with MRC-5 cells is given as over 100 µM. For the same compound, the EC50 in the data set on HCoV-229E (setting [1]) was over 100 µM. Moreover, in the data set on HCoV-229E, the “activity against HCoV-229E” value is on record as “not active”.
Turning to `CCC(CC)COC(=O)[C@H](C)N[P@](=O)(OC[C@H]1O[C@@](C#N)(c2ccc3c(N)ncnn23)[C@H](O)[C@@H]1O)Oc1ccccc1` [Remdesivir (1), Remdesivir], the “TC50 (toxic concentration that killed 50% of MRC-5 cells)” value in the data set on MRC-5 cells is over 2.0 µM; with MRC-5 cells (listed as Remdesivir), over 2.0 µM; with MRC-5 cells (listed as remdesivir), over 2.00 µM; in the data set on MRC-5 cells (listed as remdesivir (1)), over 2 ± 0 µM. For the same compound, the EC50 turned out to be 0.067 ± 0.012 µM in the data set on HCoV-229E (setting [1]) and 0.07 µM in the data set on HCoV-229E (read-out: EC50 (effective concentration that reduced 50% of viral cytopathic effect), HCoV-229E in MRC-5 cells, 6 days, triplicate data points).
On to `C[C@H](Cn1cnc2c(N)ncnc21)OCP(=O)(O)O` [TFV (2), Tenofovir], for which, in the data set with MRC-5 cells, the “TC50 (toxic concentration that killed 50% of MRC-5 cells)” value was over 100 µM. In addition, the EC50 in the data set with HCoV-229E (setting [1]) was over 100 µM.
